Measured values: EP3324923B1, “COMPOSITIONS AND METHODS USING PALYTHINE” (King's College London, priority 2015, dated 2017)

Legend:
HaCaT cells = test: UVR induced gene expression by qPCR (TaqMan, ΔΔCT); format: cell-based, human
Experimental: The gene expression analysis was performed on HaCat cells exposed as previously described. Following irradiation growth media was replaced RNA extraction was carried out 12 hours later. RNA extraction was carried out using the mirVana miRNA Isolation kit (Life Technologies, Paisley, UK) according to the manufacturers protocol for total RNA extraction. RNA quality was tested using RNA 6000 Nano Kit according to the manufacturers instruction.
Total RNA was then converted to cDNA using the High Capacity cDNA Reverse Transcription Kit (Applied Biosystems, Paisley, UK) according to manufacturers instructions. qPCR was performed using TaqMan Gene Expression Assays (Applied Biosystems) according to the manufacturers protocol with the following TaqMan FAM labelled DNA probes IL-20, IL-8, IL-6, TFRC, HMOX-1, MMP-3, MMP-12. VIC labelled GAPDH was used as the housekeeping gene. For each gene the fold change was measured using the ΔΔCT method.
Cells irradiated with 5J/cm^2 SSR with 0%, 0.3%, 4% and 10% palythine. RNA was extracted, cDNA synthesised, and gene expression analysed by qCR. […] The mean fold change ± SD was analysed with n≥3. The difference compared to 0% irradiated sample was analysed using ANOVA. Significance is expressed by *.
Cells irradiated with 5J/cm^2 SSR with 0%, 0.3% & 4% palythine or Helionori. RNA was extracted, cDNA synthesised, and gene expression analysed by qPCR. Data presented in figure 13 show the protection offered by palythine according to the invention compared with protection offered by prior art composition Helionori, as assessed by UVR induced gene expression.
DNA damage was then measured using the comet assay and IHC-IF looking at the specific DNA lesions of cyclobutane pyrimidine dimers (CPD) and 8-oxoGua. A percentage reduction in general and specific DNA damage was then determined by comparing cells irradiated with and without sunscreen compositions. Antioxidant ability was detected using H2DCFDA, which fluoresces when reacting with ROS with the addition of palythine post exposure. SSR induced gene expression covering a range of different markers (inflammation, photoageing, oxidative damage) was assessed using qPCR. The ability of palythine to reduce this gene expression was then assessed.

[1] = Photostability under increasing doses of solar simulated radiation (absorbance); format: physicochemical
Experimental: palythine was extracted from the red algae Palmaria decipiens using a methanol extraction (Confirmed by HPLC & LC-MS). The absorbance profile was determined and then the extract was exposed to increasing doses of solar simulated radiation (SSR) from a solar simulator (conforming to COLIPA standards). The absorbance profile was measured to determine photostability. Compositions according to the invention (in this example solutions of palythine) were prepared at different palythine concentrations (0.3% to 10%), as well as controls comprising 0% palythine, and HaCat keratinocytes were irradiated with SSR or UVA radiation through the solutions, which were placed on top of the cells.
Palythine was exposed to increasing doses of solar simulated radiation and absorbance measured. The absorbance spectrum of the palythine was measured between 280-400 nm using a Spectra Max 384 Plus (Molecular Devices; California, USA) spectrophotometer. Referring to figure 18, we show the photostability of palythine after exposure to increasing doses of solar simulated radiation. Palythine (0.0001% w/v palythine extracted from red algae Chondrus yendoi in PBS) was exposed to increasing doses of solar simulated radiation and the absorbance was measured to determine photostability.

HaCaT keratinocytes [2] = test: CPD DNA lesion formation by IHC-IF; format: cell-based, human; conditions: 20J/cm^2 SSR; palythine 0.3-10%w/v; immediately post exposure; n=3; p<0.0001
Experimental: HaCat keratinocytes were irradiated with 20J/cm^2 of solar simulated UVR radiation with 0% (PBS alone), 0.3%, 4% or 10% of palythine. The relative formation of the CPD DNA lesion was measured by IHC-IF and the relative fluorescent intensity plotted. The data in figure 11 show protection by palythine against solar simulated UVR induced CPD formation by IHC-IF.
The radiation procedure was carried out as described above. Cells were washed, then fixed in 2 % (v/v) paraformaldehyde with 0.5 % (v/v) Triton X-100 in PBS for 30 mins at 4 °C. DNA was then denatured by incubation in 2 M HCl for 10 mins at 37 °C. Nonspecific sites were blocked using blocking buffer of 20 % (v/v) goat serum and 0.1 % (v/v) triton x-100 in PBS for 30 mins at room temperature. The primary antibody used was Anti-CPD (Clone TDM-2) (Cosmobio, Tokyo, Japan) at 1:1000 in blocking buffer for 1 hr at room temperature. Alexafluor 488 was diluted in blocking buffer (1:200 dilution) and incubated for 1 hr at room temperature and finally DAPI was added for 10 mins. Washing was carried out (3x5 mins) between each step.
All assays were performed on HaCat cells grown as a 70-80 % confluent monolayer in multiwell plates. They were washed three times in PBS and covered with palythine dissolved in PBS at differing concentrations (0, 0.1, 0.3 %, 4 % and 10 % w/v). […]

HaCaT keratinocytes [3] = test: Cell viability by neutral red uptake assay after irradiation; format: cell-based, human; conditions: 20J/cm2 of SSR; 0.3 %, 4 % or 10 % (w/v) palythine; 24 hrs later; n=3; p=<0.0001
Experimental: All assays were performed on HaCat cells grown as a 70-80 % confluent monolayer in multiwell plates. They were washed three times in PBS and covered with palythine dissolved in PBS at differing concentrations (0, 0.1, 0.3 %, 4 % and 10 % w/v). The cells were then irradiated with either SSR or UVA radiation (5-20 J/cm^2 or 20 J/cm^2 respectively). After irradiation the palythine solution was removed and the cells washed a further three times and replaced in media or processed immediately depending on the experimental design.
Cell viability was measured 24 hours post irradiation using the neutral red uptake assay. Neutral red solution (4µgml^-1 in growth medium) (Sigma, UK) was added to the cells and they were incubated at 37 °C, 5 % CO2 for 2 hrs. Cells were washed three times in PBS to remove excess neutral red solution and then the destain solution (50 % v/v ethanol, 49 % v/v ddH2O, 1 % v/v glacial acetic acid) was added. Optical density was measured at 540 nm.
HaCaT keratinocytes were untreated, exposed to 20J/cm2 of SSR with PBS alone, 0.3 % (w/v), 4 % (w/v) or 10 % (w/v) of palythine or 10 % (w/v) palythine without exposure to UVR. Cell viability was measured 24 hrs later by the neutral red assay. Columns represent the mean ± SD (n=3).

[4] = Figure 8, RNA extraction 12 hours after irradiation, gene not responsive to UVR

## COC1=C(NCC(=O)O)CC(O)(CO)CC1=N (stereo not shown) [palythine]
HaCaT cells; 0.3% palythine, 5J/cm^2 SSR, figure 13
  protection, UVR induced gene expression (decrease compared to the irradiated control): significant protection
HaCaT cells; 0.3 % palythine, Figure 8, compared to the control
  HMOX-1 gene expression: significantly reduced
HaCaT cells; [4]
  MMP-12 gene expression compared to the control: no effect
  TFRC gene expression compared to the control: no effect
HaCaT cells; IL-20, IL-6, IL-8, MMP-3, HMOX-1, 5J/cm^2 SSR, 0.3% & 4%
  expression of the genes compared to the irradiated control (containing no sunscreen): significant reduction
HaCaT cells; palythine at 0.3% or greater, all concentrations, p=<0.05
  SSR induced differential gene expression for all markers investigated: significantly reduced
[1]; after 40SED of solar simulated radiation, 0.0001% w/v palythine from Chondrus yendoi in PBS, absorbance 280-400 nm
  photostability: extremely photostable with negligible photodegradation
[1]; after 60 standard erythema doses (SED) of SSR, palythine from Palmaria decipiens
  photostability: extremely photostable
HaCaT keratinocytes [2]
  CPD production compared to irradiated control: significant reduction
HaCaT keratinocytes [3]
  protection against UVR induced cell death (cell viability): significant protection
